Measurements from BindingDB's records for doi:10.1021/jm00083a013 (1992).

Key:
[1] = molecular target: Aminopeptidase N (Rattus norvegicus) (UniProt P15684); experiment: Compound was evaluated for its inhibitory potency against purified membrane bound rat brain Aminopeptidase
Aminopeptidase B [2] = molecular target: T1, Aminopeptidase B (Rattus norvegicus, UniProt O09175); experiment: Compound was evaluated for its inhibitory potency against purified membrane bound rat brain Aminopeptidase B (AP-B) using L-lysine-beta napthylamide as substrate
T1 sequence (O09175 whole entry): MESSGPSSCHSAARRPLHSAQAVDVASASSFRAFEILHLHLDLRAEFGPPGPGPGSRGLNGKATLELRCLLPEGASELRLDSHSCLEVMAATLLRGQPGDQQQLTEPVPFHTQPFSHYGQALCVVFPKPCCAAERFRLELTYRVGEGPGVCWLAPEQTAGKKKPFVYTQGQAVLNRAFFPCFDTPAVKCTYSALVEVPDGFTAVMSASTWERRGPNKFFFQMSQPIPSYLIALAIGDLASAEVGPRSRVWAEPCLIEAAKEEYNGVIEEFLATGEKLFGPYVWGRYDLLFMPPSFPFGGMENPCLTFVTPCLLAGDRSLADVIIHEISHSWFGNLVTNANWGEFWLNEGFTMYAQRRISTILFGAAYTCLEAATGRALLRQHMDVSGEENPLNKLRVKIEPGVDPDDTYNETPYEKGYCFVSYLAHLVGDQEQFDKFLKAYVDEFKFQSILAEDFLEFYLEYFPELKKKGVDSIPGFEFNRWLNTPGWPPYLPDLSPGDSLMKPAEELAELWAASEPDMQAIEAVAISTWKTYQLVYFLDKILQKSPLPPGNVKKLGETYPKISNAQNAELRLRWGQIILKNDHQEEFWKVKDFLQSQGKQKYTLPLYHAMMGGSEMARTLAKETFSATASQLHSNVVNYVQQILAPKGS

Aminopeptidase N = molecular target: T2, Aminopeptidase N (Rattus norvegicus, UniProt P15684); experiment: ChEBML_35366
T2 sequence (P15684 whole entry): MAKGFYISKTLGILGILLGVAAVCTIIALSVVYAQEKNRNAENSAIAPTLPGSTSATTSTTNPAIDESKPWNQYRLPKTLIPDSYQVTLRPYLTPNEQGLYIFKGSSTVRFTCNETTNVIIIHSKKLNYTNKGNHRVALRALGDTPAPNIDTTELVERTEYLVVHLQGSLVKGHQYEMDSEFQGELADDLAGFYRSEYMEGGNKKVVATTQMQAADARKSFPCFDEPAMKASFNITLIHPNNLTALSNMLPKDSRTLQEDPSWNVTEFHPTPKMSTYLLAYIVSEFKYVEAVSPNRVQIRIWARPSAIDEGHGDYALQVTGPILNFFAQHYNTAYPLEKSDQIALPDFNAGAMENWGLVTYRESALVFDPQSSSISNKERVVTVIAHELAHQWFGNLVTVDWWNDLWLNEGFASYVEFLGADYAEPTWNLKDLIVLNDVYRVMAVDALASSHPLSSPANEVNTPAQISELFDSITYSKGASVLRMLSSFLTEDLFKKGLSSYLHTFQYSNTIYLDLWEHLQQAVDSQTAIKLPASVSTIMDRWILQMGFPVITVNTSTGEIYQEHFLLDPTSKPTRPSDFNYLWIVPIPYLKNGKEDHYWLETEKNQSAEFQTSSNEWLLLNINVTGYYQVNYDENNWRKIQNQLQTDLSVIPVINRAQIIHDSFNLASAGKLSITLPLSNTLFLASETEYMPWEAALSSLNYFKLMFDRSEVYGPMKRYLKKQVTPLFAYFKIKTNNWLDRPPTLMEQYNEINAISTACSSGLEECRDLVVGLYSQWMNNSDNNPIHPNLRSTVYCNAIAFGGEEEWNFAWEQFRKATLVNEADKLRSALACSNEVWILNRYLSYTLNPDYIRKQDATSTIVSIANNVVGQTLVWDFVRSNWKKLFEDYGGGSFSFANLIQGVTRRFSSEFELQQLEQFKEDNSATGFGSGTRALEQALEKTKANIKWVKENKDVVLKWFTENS
Protocol: Compound was evaluated for its inhibitory potency against purified membrane bound rat brain Aminopeptidase M (AP-M) using [3H]Leu-enkephalin as substrate

Aminopeptidase B [3] = molecular target: T1, Aminopeptidase B; experiment: ChEBML_35343
Protocol: Compound was evaluated for its inhibitory potency against purified membrane bound rat brain Aminopeptidase B using L-lysine-beta napthylamide as substrate

## COC(=O)[C@H](CC(C)C)NC(=O)[C@@H](O)[C@H](N)CCCCN
[1]
  IC50: 2.01 µM

## COC(=O)[C@H](CC(C)C)NC(=O)[C@H](O)[C@@H](N)CCCCN
Aminopeptidase B [2]
  IC50: 500 µM
Aminopeptidase N
  IC50: > 1000 µM

## COC(=O)[C@H](Cc1c[nH]c2ccccc12)NC(=O)[C@H](O)[C@@H](N)CCCCN
Aminopeptidase B [3]
  IC50: 500 µM
